Experimental data taken from ChEMBL document CHEMBL3885861, “Open TG-GATES”.

Species on record: Rattus norvegicus
Assay: Open TG-GATES - Regimen: Daily Repeat
Format: toxicity, organism-based, Sprague-Dawley
Parameters: regimen Daily Repeat, gender Male, age 6 weeks
Settings: in vivo, po, route gavage; for LIVER: tissue Liver
[1] = 3 mg/kg, 72 h, dose level Middle, time 3 day
[2] = 3 mg/kg, 72 h, tissue Blood, dose level Middle, time 3 day
[3] = 3 mg/kg, 72 h, tissue Kidney, dose level Middle, time 3 day
[4] = 3 mg/kg, 72 h, tissue Plasma, dose level Middle, time 3 day
[5] = 3 mg/kg, […], dose level Middle, time 28 day
[6] = 3 mg/kg, […], tissue Blood, dose level Middle, time 14 day
[7] = 3 mg/kg, […], tissue Blood, dose level Middle, time 28 day
[8] = 3 mg/kg, […], tissue Kidney, dose level Middle, time 28 day
[9] = 3 mg/kg, […], tissue Plasma, dose level Middle, time 14 day
[10] = 3 mg/kg, […], tissue Plasma, dose level Middle, time 28 day
[11] = 10 mg/kg, 72 h, tissue Blood, dose level High, time 3 day

O=C(O)Cc1ccccc1Nc1c(Cl)cccc1Cl [DICLOFENAC]
TERMINAL_BW [1]: 236.5 g
Bas [2]: 0%
Eos [2]: 1%
Fbg [2]: 214.8 mg/dL
Lym [2]: 79.8%
MCH [2]: 21.5 pg
Plat [2]: 125.2 x10_4/uL
RBC [2]: 641.4 x10_4/ul
WBC [2]: 112.9 x10_2/uL
KIDNEY_L [3]: 1 g
KIDNEY_TOTAL [3]: 2.1 g
LIVER [1]: 11.2 g
ALP [4]: 1064.8 IU/L
ALT [4]: 39.2 IU/L
AST [4]: 69.2 IU/L
CRE [4]: 0.3 mg/dL
DBIL [4]: 0.1 mg/dL
GLC [4]: 194.8 mg/dL
IP [4]: 7.1 mg/dL
LDH [4]: 186 IU/L
PL [4]: 170.8 mg/dL
RALB [4]: 3.4 g/dL
TBIL [4]: 0.2 mg/dL
TC [4]: 84.2 mg/dL
TG [4]: 122 mg/dL
gamma-GTP [4]: 1.2 IU/L
TERMINAL_BW (3 mg/kg, […], dose level Middle, time 14 day): 309.6 g
TERMINAL_BW [5]: 391.3 g
Bas [6]: 0%
Eos [6]: 1%
Fbg [6]: 226 mg/dL
MCH [6]: 20.8 pg
MCHC [6]: 35.6%
MCV [6]: 58.4 fL
Neu [6]: 14.2%
Plat [6]: 116.2 x10_4/uL
RBC [6]: 705.4 x10_4/ul
Ret [6]: 3.5%
WBC [6]: 117.1 x10_2/uL
Bas [7]: 0%
Eos [7]: 1%
Fbg [7]: 216.2 mg/dL
Lym [7]: 83.2%
MCH [7]: 20 pg
MCHC [7]: 36.1%
MCV [7]: 55.4 fL
Plat [7]: 110.4 x10_4/uL
RBC [7]: 789.2 x10_4/ul
Ret [7]: 2.2%
WBC [7]: 97.8 x10_2/uL
KIDNEY_L [8]: 1.4 g
KIDNEY_R [8]: 1.4 g
KIDNEY_TOTAL [8]: 2.8 g
LIVER [5]: 15.1 g
ALP [9]: 835 IU/L
ALT [9]: 35 IU/L
AST [9]: 70.8 IU/L
CRE [9]: 0.4 mg/dL
GLC [9]: 224.2 mg/dL
IP [9]: 7.6 mg/dL
K [9]: 3.5 meq/L
LDH [9]: 198.8 IU/L
PL [9]: 151.2 mg/dL
RALB [9]: 3.3 g/dL
TBIL [9]: 0.1 mg/dL
TC [9]: 71.8 mg/dL
TG [9]: 135.8 mg/dL
gamma-GTP [9]: 0.8 IU/L
ALP [10]: 618.6 IU/L
AST [10]: 61 IU/L
CRE [10]: 0.5 mg/dL
Ca [10]: 10.3 mg/dL
DBIL [10]: 0.086 mg/dL
GLC [10]: 221.2 mg/dL
IP [10]: 7.1 mg/dL
K [10]: 3.6 meq/L
LDH [10]: 177 IU/L
Na [10]: 140.8 meq/L
PL [10]: 130.2 mg/dL
RALB [10]: 3.4 g/dL
TBIL [10]: 0.1 mg/dL
TC [10]: 60 mg/dL
TP [10]: 6.2 g/dL
gamma-GTP [10]: 0.6 IU/L
TERMINAL_BW (10 mg/kg, 72 h, dose level High, time 3 day): 234.4 g
Bas [11]: 0%
Eos [11]: 1%
Fbg [11]: 231.8 mg/dL
